According to patent US20080146524A1, “Selective inhibitors of neurotensin degrading enzymes” (Solvay Pharmaceuticals B.V., priority 2006, published 2008):
Residues, ends and D or L forms follow the SMILES beside them.

Tests used:
[1] = biological target: Neurolysine EC 3.4.24.16 (UniProt P42676); format: biochemical
[2] = biological target: Thimet oligopeptidase EC 3.4.24.15 (UniProt P24155); test: enzyme inhibition of Thimet oligopeptidase EC 3.4.24.15 (published methods, Dauch 1991a,b); format: biochemical
[3] = determination of chemical stability, storage in glass vials, LC-MS; format: physicochemical; settings: for relative stability: stored in glass vials, LC-MS; for stability on storage (in words): over 10 days (240 hr)
Protocol: Compound 36 and its phosphinamide analog phosphodiepril (FR 2 654 430, synthesized as disclosed therein) were stored separately in glass vials. At different time intervals samples were taken and analyzed by LC-MS. Samples were dissolved in DMSO (0.1 mg/ml) and diluted by a factor 100 in the first LC eluent (A). At fixed time points an amount of 100 μl was taken from the formulations. These time points were 0, 3, 72, and 240 hours. All samples were measured in the positive mode, with an ESI source on the LC-MS.
Eluents were composed of water (H2O), acetonitril (ACN), methanol (MeOH) and ammonium-acetate (NH4Ac). The eluent is mixed out of two different bottles with two different compositions. • Eluent A consists of H2O/ACN/MeOH 800/100/100+0.77 g/l NH4Ac. • Eluent B consists of H2O/ACN/MeOH 100/800/100+0.77 g/l NH4Ac.
The gradient in the pump was set to:
Columns: Chromsep Guard Column SS 10×2 mm (CP28141) and Inertsil 5 ODS-3 100×3.0 mm (CP22234). Column temperature: 25° C.
Injection: well plate temperature: 25° C. • Injection volume: 20 μl • Splitter (post column): 1:4 • Run time: 9.50 minutes.
Detection MS-MS:ESI (pos/neg) spray 3.0 kV • Fragmentor 70 • Gain 2.0 • Dwell 700 msec • Nebulizer pressure 42 psig • Drying gas temperature 325° C. • Capillary temperature 325° C.
Compound 36 and its phosphinamide analog phosphodiepril (FR 2 654 430, synthesized as disclosed therein) were stored separately in glass vials. At different time intervals samples were taken and analyzed by LC-MS.
When calculating the relative stability it was assumed that the compounds were completely dissolved during formulation. Therefore, the relative stability is 100% at the beginning (0 hour measurement). The following time measurements are recalculated from that measurement.

[4] = in vivo experiments with phosphodiepril
From the text: Thus, even in its pure form, the N-analog is not stable. Due to the rapid hydrolysis of the phosphonamide bond, enzyme inhibition activity of this compound can only be determined with difficulty.

[5] = system: Corynebacterium rathayii collagenase; settings: cited from earlier work
[6] = biological target: endopeptidase 24.15 (Rattus norvegicus, UniProt P24155); settings: at concentrations as high as 5 mM; cited from earlier work
[7] = biological target: endopeptidase 24.16 (Rattus norvegicus, UniProt P42676); settings: cited from earlier work
[8] = Time 0 hr (set to 100% at the beginning)
[9] = Time 240 hr, relative to 0 hour

Sequence of endopeptidase 24.15 (P24155 whole entry): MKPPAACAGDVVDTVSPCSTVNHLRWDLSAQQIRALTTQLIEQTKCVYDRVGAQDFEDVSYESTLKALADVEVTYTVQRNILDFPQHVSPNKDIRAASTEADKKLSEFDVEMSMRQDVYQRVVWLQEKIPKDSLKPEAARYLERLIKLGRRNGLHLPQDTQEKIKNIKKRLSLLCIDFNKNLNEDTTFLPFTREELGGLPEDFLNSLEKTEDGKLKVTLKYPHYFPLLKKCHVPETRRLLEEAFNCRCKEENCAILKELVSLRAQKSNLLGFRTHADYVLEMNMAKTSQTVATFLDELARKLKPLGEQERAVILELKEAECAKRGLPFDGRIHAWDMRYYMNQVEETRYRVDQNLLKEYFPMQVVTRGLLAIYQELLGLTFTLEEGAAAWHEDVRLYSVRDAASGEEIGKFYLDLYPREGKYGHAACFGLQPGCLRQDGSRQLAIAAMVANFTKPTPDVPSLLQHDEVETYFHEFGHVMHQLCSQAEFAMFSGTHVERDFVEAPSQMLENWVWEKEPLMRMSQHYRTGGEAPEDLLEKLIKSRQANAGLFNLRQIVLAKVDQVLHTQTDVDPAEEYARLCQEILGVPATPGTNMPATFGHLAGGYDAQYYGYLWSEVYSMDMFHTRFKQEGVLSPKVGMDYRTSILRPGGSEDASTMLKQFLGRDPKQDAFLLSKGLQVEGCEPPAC
Sequence of endopeptidase 24.16 (P42676 38-704): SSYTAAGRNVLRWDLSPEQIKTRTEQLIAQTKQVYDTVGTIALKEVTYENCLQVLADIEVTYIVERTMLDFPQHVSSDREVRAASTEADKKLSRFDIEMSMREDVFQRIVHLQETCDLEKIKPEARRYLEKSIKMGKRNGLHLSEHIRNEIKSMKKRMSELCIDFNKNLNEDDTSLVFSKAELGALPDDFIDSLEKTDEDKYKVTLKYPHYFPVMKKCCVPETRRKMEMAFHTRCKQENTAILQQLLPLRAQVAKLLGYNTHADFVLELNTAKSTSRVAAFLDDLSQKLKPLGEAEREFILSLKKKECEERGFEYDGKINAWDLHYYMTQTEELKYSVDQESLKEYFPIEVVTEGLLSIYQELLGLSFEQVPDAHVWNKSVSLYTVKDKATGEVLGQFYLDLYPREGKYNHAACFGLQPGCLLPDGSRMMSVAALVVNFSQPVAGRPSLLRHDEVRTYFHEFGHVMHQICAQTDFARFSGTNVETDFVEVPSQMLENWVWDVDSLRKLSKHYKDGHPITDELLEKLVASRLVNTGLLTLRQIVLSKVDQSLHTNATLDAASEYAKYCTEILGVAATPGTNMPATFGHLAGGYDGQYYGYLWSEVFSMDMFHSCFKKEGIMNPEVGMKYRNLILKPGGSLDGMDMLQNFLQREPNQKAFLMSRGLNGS

SMILES | enzyme inhibition EC 3.4.24.16 pIC50 [1] | enzyme inhibition EC 3.4.24.15 pIC50 [2] | other results
CCCCC(NC(=O)C(NC(=O)CCP(=O)(O)CCCCc1ccccc1)C(C)C)C(=O)O (stereo not drawn) [Compound 6] | 6.7 | 6.8 | 
CCC(C)C(NC(=O)CCP(=O)(O)CCc1ccc2ccccc2c1)C(=O)NC(CC(C)C)C(=O)O (stereo not drawn) [Compound 29] | 6.6 | 7.0 | 
CCCCC(NC(=O)C(C)N(C)C(=O)CCP(=O)(O)CCCCc1ccccc1)C(=O)O (stereo not drawn) [Compound 11] | 6.1 | 6.2 | 
CC(C)C(NC(=O)CCP(=O)(O)CCCCc1ccccc1)C(=O)NC(Cc1ccccc1)C(=O)O (stereo not drawn) [Compound 7] | 6.1 | 6.2 | 
CCC(C)C(NC(=O)CCP(=O)(O)CCc1cccc2ccccc12)C(=O)NC(C(=O)O)C(C)C (stereo not drawn) [Compound 28] | 5.8 | 6.3 | 
CCCC[C@H](NC(=O)[C@@H]1CCCN1C(=O)CNP(=O)(O)CCc1ccc2ccccc2c1)C(=O)O [phosphodiepril, reference compound] |  |  | relative stability [3, 8]: 100%; relative stability ([3]; Time 3 hr, relative to 0 hour): 92%; relative stability ([3]; Time 72 hr, relative to 0 hour): 87%; relative stability [3, 9]: 82%; stability on storage (in words) [3]: gradually degraded; outcome of in vivo experiments [4]: negative results
CCCCC(NC(=O)C(NC(=O)CCP(=O)(O)CCc1cccc2ccccc12)C(C)C)C(=O)O (stereo not drawn) [Compound 26] | 6.3 | 6.5 | 
CCC(C)C(NC(=O)CCP(=O)(O)CCc1cccc2ccccc12)C(=O)NC(CC(C)C)C(=O)O (stereo not drawn) [Compound 30] | 5.2 | 5.8 | 
CCCC[C@H](NC(=O)[C@@H]1CCCN1C(=O)CCP(=O)(O)CCc1ccccc1)C(=O)O [N-[1-[3-[hydroxyl-(2-phenyl-ethyl)phosphinyl]1-oxopropyl]-L-prolyl]-L-norleucine] |  |  | inhibition of Corynebacterium rathayii collagenase [5]: potent inhibitor
CCC(C)C(NC(=O)CCP(=O)(O)CCCCc1ccccc1)C(=O)NC(CC(C)C)C(=O)O (stereo not drawn) [Compound 9] | 5.6 | 6.3 | 
CC[C@H](C)[C@H](NC(=O)[C@@H]1CCCN1)C(=O)O [Pro-IIe] (H-Pro-Ile-OH) |  |  | inhibition of endopeptidase 24.15 [6]: does not inhibit; Ki [7]: 90 µM
CCCC[C@H](NC(=O)[C@@H]1CCCN1C(=O)CCP(=O)(O)CCc1ccc2ccccc2c1)C(=O)O [Compound 36] | >7.5 | 8.9 | relative stability [3, 8]: 100%; relative stability ([3]; Time 3 hr, relative to 0 hour): 101%; relative stability ([3]; Time 72 hr, relative to 0 hour): 103%; relative stability [3, 9]: 100%; stability on storage (in words) [3]: remained stable
CCCCC(NC(=O)C(C)N(C)C(=O)CCP(=O)(O)CCc1ccc2ccccc2c1)C(=O)O (stereo not drawn) [Compound 32] |  | 7.0 | 
CCC(NC(=O)C(Cc1ccccc1)NC(=O)CCP(=O)(O)Cc1ccc2ccccc2c1)C(=O)O (stereo not drawn) [Compound 25] | 5.9 | 5.7 | 
CC(C)C(NC(=O)CCP(=O)(O)CCc1cccc2ccccc12)C(=O)NC(Cc1ccccc1)C(=O)O (stereo not drawn) [Compound 27] | 6.1 | 6.2 | 
CCC(C)C(NC(=O)CCP(=O)(O)CCCCc1ccccc1)C(=O)NC(C(=O)O)C(C)C (stereo not drawn) [Compound 8] | 5.4 | 5.8 | 
